Here are results for ten molecules from publication PMC8308740 (Pharmaceuticals, 2021).

Data set [1] concerns the target T1, TbPTR1 (Trypanosoma brucei brucei, UniProt O76290).
T1 construct: His tag; made in house; host or cells: E. coli
T1 sequence (O76290 1-268): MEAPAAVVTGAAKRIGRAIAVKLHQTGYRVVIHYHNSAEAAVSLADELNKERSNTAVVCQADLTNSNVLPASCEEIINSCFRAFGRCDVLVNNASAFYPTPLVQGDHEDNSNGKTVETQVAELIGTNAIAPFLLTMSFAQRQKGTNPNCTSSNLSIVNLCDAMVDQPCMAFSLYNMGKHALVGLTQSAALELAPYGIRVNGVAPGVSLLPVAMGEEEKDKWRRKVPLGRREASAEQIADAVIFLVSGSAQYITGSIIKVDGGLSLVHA
Conditions: read-out: TbPTR1 IC50; cited from earlier work.

For data set [2], the target named is T2, TbDHFR-TS (Trypanosoma brucei brucei, UniProt Q27783).
T2 construct: His tag; made in house; host or cells: E. coli
Put plainly: biochemical. In kind it is biochemical. Conditions: for Selectivity IC50 hDHFR /IC50 TbDHFR-TS: ratio, PYR and CYC from Ki values. The procedure:
(§1) Recombinant TbPTR1, TbDHFR-TS, and hDHFR were expressed in E. coli as histidine-tagged proteins and purified following established protocols. Purified recombinant enzymes were stored in stock solutions having concentrations of 0.93 mg/mL, 0.53 mg/mL, and 0.88 mg/mL, for TbPTR1, TbDHFR-TS, and hDHFR, respectively. A direct spectrophotometric kinetic test was used to evaluate the inhibitory activity of the compound library. A Jasco-V730 double beam spectrophotometer (Jasco Europe) was employed to perform the assays. Fixed final concentrations of purified TbPTR1, TbDHFR-TS, and hDHFR (15 nM, 55 nM, and 15 nM respectively) were incubated in semi-micro plastic cuvettes (Brand, Tech Scientific, Essex, UK) with 400 µL of sodium citrate buffer at pH = 3.7 and TES buffer (100 mM TES, 50 mM MgCl2, 13 mM CH2O, 2 mM EDTA, 150 mM 2-mercaptoethanol, pH 7.4), plus 25 µM 7,8-dihydro-L-biopterin (H2B, Sigma Aldrich) for TbPTR1 and 50 µM of 7,8-dihydrofolic acid (H2FA, Sigma Aldrich) for TbDHFR-TS and hDHFR enzymes.
(§2) Residual NADP(H) absorption (λmax = 340 nm), converted to NADP^+ as cofactor, was monitored for 180 s of the ongoing reaction and its Δ(OD)/min was registered for v(0) slope at 22.4 °C. Each inhibition assay was performed in triplicate, and five to six different concentrations of compounds were tested to assess their relative IC50.
(§3) The equation used to interpolate points was y = y(min) + (y(max) − y(min))/(1 + (IC50/x)^^HillSlope), where HillSlope was constrained at −1 (standard Michaelis–Menten behaviour for competitive inhibitors), from which IC50 were extrapolated. Standard deviations—as reported in Table 1—were obtained from 95% confidence interval (CI95) of fitting.

Data set [3] concerns the target T1, TbPTR1. Kind of data set: biochemical. Conditions: for Selectivity IC50 TbDHFR-TS /IC50 TbPTR1: ratio, for PYR and CYC calculated assuming a competitive inhibition mechanism; for IC50: recombinant enzyme, citrate buffer pH 3.7, 25 µM H2B, spread from CI95 of fitting; for fold improvement of inhibitory activity against TbPTR1 relative to CYC: versus CYC IC50. In kind it is biochemical. The procedure: as §1, §2, §3

Data set [4] concerns the target T3, hDHFR (Homo sapiens, UniProt P00374).
T3 construct: His tag; made in house; host or cells: E. coli
T3 sequence (P00374 1-187): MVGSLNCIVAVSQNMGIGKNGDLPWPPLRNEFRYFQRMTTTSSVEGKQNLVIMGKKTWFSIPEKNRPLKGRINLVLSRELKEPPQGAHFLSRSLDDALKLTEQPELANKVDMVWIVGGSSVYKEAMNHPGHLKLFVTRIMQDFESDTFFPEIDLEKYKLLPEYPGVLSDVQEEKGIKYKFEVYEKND
Put plainly: hDHFR spectrophotometric enzyme inhibition assay. It counts as biochemical. Conditions: TES buffer pH 7.4, 50 µM H2FA; spread from CI95 of fitting. On the procedure:
as §1, §2, §3

A short description of data set [5]: Stability of compound 6 in solution at different pH (HPLC-ELSD). In kind it is physicochemical. Conditions: pH 10.5, 7 and 3.7, room temperature, overnight / 30 h. The procedure: Although it was unusual, we suspected the potential hydrolysis of the acetamido group to generate an amine and acetic acid. Therefore, we tested the compound stability at pH 10.5, 7, and 3.7 overnight at room temperature.
We have studied the stability of the CYC-like compound 6 to test the hydrolysis of the N-acetyl group in different pH buffers and to screen its putative prodrug action. We prepared three 10 µM solutions from a 100 µM DMSO stock of compound 6 in double deionized water, at pH 10.5 with NaOH, and in citrate buffer, pH 3.7, used for kinetic assays with TbPTR1. We have monitored the purity of these solutions with HPLC–ELSD just after compound dilutions. A volume of 7 µL of each solution was immediately injected in an HPLC Atlantis dC18, 150 × 3.9 mm, 3 µm ID column (Waters Corp, Milford, MA, US) coupled to an ELSD detector (Agilent 1260 Infinity II system). Compounds were eluted with 0.1% formic acid in water (A) and pure acetonitrile (B), gradient 10% to 50% B for 10 min, at 0.5 mL min^−1, room temperature. Detector parameters were set as follows: Neb = 30 °C, Evap = 40 °C, N2 flow = 1.6 SLM, smoothing = 3.0 s. […] Compound stability also was evaluated with 1H-NMR, obtaining the same results. We thus concluded that compound 6 is not susceptible to pH mediated hydrolysis, and acts as a TbPTR1 inhibitor as N-acetylated compounds.

Data set [6] deals with the molecule itself. Put plainly: crystal structure; TbPTR1 crystals by hanging drop vapour diffusion at room temperature, 2-2.5 M sodium acetate, 0.1 M sodium citrate pH 5; soaked with 3 mM PYR; space group P21 with a functional tetramer in the asymmetric unit; NADP(H) bound.
The mark [7] stands for this setting: TES buffer pH 7.4, 50 µM H2FA, spread from CI95 of fitting, read-out: TbDHFR-TS (IC50 µM).

Where “and” joins values, the source holds several entries; their conditions need not be identical. Identical values can stand only once. Entries after “also recorded” stand apart in the source; their conditions may differ. Like-named read-outs stand apart in the source and are kept apart here.

T2 sequence (Q27783 whole entry): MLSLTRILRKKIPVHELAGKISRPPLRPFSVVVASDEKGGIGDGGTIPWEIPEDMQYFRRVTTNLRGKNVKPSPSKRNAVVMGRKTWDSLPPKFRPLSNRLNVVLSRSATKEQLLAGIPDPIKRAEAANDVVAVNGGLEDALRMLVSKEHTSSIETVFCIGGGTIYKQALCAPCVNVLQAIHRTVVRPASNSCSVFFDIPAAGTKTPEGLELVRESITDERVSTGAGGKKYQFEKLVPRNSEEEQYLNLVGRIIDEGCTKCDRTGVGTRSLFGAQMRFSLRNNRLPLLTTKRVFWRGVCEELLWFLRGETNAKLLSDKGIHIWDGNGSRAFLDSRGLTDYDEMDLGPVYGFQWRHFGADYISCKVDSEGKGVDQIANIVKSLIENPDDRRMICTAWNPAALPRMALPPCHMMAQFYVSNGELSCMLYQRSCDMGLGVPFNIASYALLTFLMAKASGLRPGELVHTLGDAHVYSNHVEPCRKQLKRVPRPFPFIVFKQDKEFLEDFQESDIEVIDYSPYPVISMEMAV

Usually IC50 stands for the concentration that inhibits the measured activity by half. With `NC1=NC(c2ccc([N+](=O)[O-])cc2)N(c2ccc(Cl)c(Cl)c2)C(N)=N1` (stereo not shown) [Compound 2a], the IC50 in data set [1] was 0.186 µM.
On to `CCCC1N=C(N)N=C(N)N1c1ccc(Cl)cc1` (stereo not shown) [Compound 2], for which, in data set [2], inhibition was half-maximal at 7.26 µM (IC50); the “Selectivity IC50 hDHFR /IC50 TbDHFR-TS” value is 9.2 and 9.19. Besides, in data set [3], the “Selectivity IC50 TbDHFR-TS /IC50 TbPTR1” value is 0.26 and the 50% inhibitory concentration (IC50) was determined as 27.5 µM. Further, the half-maximal inhibitory concentration (IC50) in data set [4] is 66.7 µM.
For the molecule `CC1N=C(N)N=C(N)N1c1ccc(Cl)cc1` (stereo not shown) [Compound 1], the 50% inhibitory concentration (IC50) was determined as 103 µM in data set [2], 6.02 µM in data set [3] and 337 µM in data set [4]. Moreover, the “Selectivity IC50 hDHFR /IC50 TbDHFR-TS” value in data set [2] is 3.27. Further, the “Selectivity IC50 TbDHFR-TS /IC50 TbPTR1” value in data set [3] is recorded as 16.9.
Regarding `CC1(C)N=C(N)N=C(N)N1c1ccc(O)cc1` [Compound 4], the IC50 in data set [2] (setting [7]) came to 89 µM; in data set [3], 4.1 µM; in data set [4], 284 µM. The “Selectivity IC50 hDHFR /IC50 TbDHFR-TS” value in data set [2] is 3.19. Further, the “Selectivity IC50 TbDHFR-TS /IC50 TbPTR1” value in data set [3] is 21.7.
Regarding `COc1ccc(N2C(N)=NC(N)=NC2(C)C)cc1` [Compound 5, 1-(4-methoxyphenyl)-6,6-dimethyl-1,6-dihydro-1,3,5-triazine-2,4-diamine], the IC50 in data set [2] (setting [7]) was determined as 33.2 µM. In data set [2], the “Selectivity IC50 hDHFR /IC50 TbDHFR-TS” value was determined as 12.4. In data set [3], the “Selectivity IC50 TbDHFR-TS /IC50 TbPTR1” value is reported as 49.6, the IC50 stood at 0.67 µM and the “fold improvement of inhibitory activity against TbPTR1 relative to CYC” value is listed as 46 fold. The IC50 in data set [4] was determined as 413 µM.
As for `CC1(C)N=C(N)N=C(N)N1c1ccc(Cl)c(Cl)c1` [Compound 1a], in data set [1], the IC50 is 0.692 µM.
For `CC1(C)N=C(N)N=C(N)N1c1ccc(Cl)cc1` [CYC, cycloguanil], in data set [1], the IC50 is 31.6 µM.
Regarding `COc1ccc(N2C(N)=NC(NC(C)=O)=NC2(C)C)cc1` [Compound 6, N-[6-amino-5-(4-methoxyphenyl)-4,4-dimethyl-4,5-dihydrotriazin-2-yl]acetamide], the half-inhibitory concentration (IC50) in data set [2] (setting [7]) came out at 18.9 µM; in data set [3], 0.83 µM; in data set [4], 62.5 µM. In addition, the “Selectivity IC50 hDHFR /IC50 TbDHFR-TS” value in data set [2] is on record as 3.31. The “Selectivity IC50 TbDHFR-TS /IC50 TbPTR1” value in data set [3] is listed as 22.8. Moreover, the “compound stability (hydrolysis of N-acetyl group), HPLC analysis” value in data set [5] is “fully stable; also recorded: no changes in chromatograms were detected”.
Take `NC1=NC2(CCCCC2)N(c2ccc(Cl)cc2)C(N)=N1` [Compound 3]: in data set [2] (setting [7]), the IC50 amounted to 17.6 µM. The “Selectivity IC50 hDHFR /IC50 TbDHFR-TS” value in data set [2] stood at 3.73. Also, in data set [3], the “Selectivity IC50 TbDHFR-TS /IC50 TbPTR1” value is listed as 14.4, the IC50 amounted to 1.22 µM and the “fold improvement of inhibitory activity against TbPTR1 relative to CYC” value was 30 fold. Besides, in data set [4], the 50% inhibitory concentration (IC50) was 65.6 µM.

B1: Trypanosoma brucei pteridine reductase 1 (enzyme)
chain: T1 sequence (O76290 1-268)
notes: pteridine reductase 1 (PTR1) of Trypanosoma brucei, recombinant; also called TbPTR1; PTR1; source: E. coli, histidine-tagged, purified following established protocols
What is called stoichiometry N is the number of molecules, sites or subunits per partner or assembly. Take B1: the “stoichiometry N” value in data set [6] turned out to be 4.
